Measurements as given in US12661354B2, “DRG-MDM2-4 for use as a novel mouse double minute 2 (MDM2) inhibitor” (BAHCESEHIR UNIVERSITESI, priority 2020, dated 2026).
Like-named read-outs stand apart in the source and are kept apart here.

How the values were obtained:
MDA-MB231 cell lines = test: MTT cell viability assay (IC50); type: cell-based; conditions: Homo sapiens, MDA-MB-231; MDA-MB231, single dose of treatment, 10^−9 to 10^−4 M, 570 nm absorbance
Experimental: (§1) HCT 116 colon cancer and MDA-MB231 breast cancer cell lines are used in cell culture experiments.
(§2) Cells were treated with high-glucose DMEM medium (Biosera) supplemented with 10% FBS (Gibco) and 1× penicillin/streptomycin (Multicell). The assay was designed to contain 10,000 cells for each well of 24-well cell culture plates before being treated with inhibitors.
(§3) Compound of formula I was dissolved with DMSO as 20 mM stock. 24 hours later, the solution was diluted in DMEM with 10% FBS and final concentration of vehicle DMSO was 0.5% at maximum. Therefore, the vehicle group included 0.5% DMSO concentration in experiments. Intensive cultivation of cells causes a decrease in proliferation capacity.
The MTT cell viability assay was used to detect values of half-maximal inhibitory concentration (IC50). Different concentrations of compound of formula I ranging between 10^−9 to 10^−4 M were tested on MDA-MB231 cell lines with single dose of treatment. 570 nm absorbance values were recorded and IC50 values were calculated by dose response-inhibition curves and nonlinear regression analysis on Graphpad Prism 8 software. IC50 value of compound of formula I was determined to be 24 μm (FIG. 1).

[1] = tested on: HCT 116 colon cancer and MDA-MB231 breast cancer cell lines; test: MTT cell proliferation assay; type: cell-based; conditions: for cytotoxicity at 100 µM: read-out: cell viability decreased
Experimental: as §1, §2, §3
For proliferation inhibition analysis, cells were seeded in 24 well plates at 1×10^4 cells/well cells overnight without drug treatment. During the cell proliferation experiments, we performed five days of treatment in each cell line and repeated the experiments three times to check each experiment. No significant difference in cell viability was observed after the third day. Therefore, cells with different drug concentrations were treated for two days. After 48 hours, MTT was applied to the cells and incubated at 37° C. for 4 hours, formazan was solubilized with DMSO (Sigma-Aldrich, St. Louis, USA) and absorbance was measured at 570 nm.
Molecule concentration was 100 μM, the lower concentrations were not shown. Vehicle represents the groups treated with only %0,5 DMSO and Untreated represents no molecule treated group. Molecule responses were evaluated by cell viability which is obtained by spectrophotometric analysis of cells upon MTT treatment at 12 h, 24 h, 48 h and 72 h. […] Statistical significance in graphs was determined by comparing each treatment group with DMSO control using ANOVA testing and significance is considered as p<0.001 (FIG. 2).

HCT-116 cells = test: Microscopic evaluation of HCT-116 cells; type: cell-based
From the text: Cells were photographed and observed under microscope for three days.
As a result, cell viability decreased by 40% at the end of the first day and reached 60% at the end of the third day. Any cell proliferation change and apoptotic cell morphology were not observed in the untreated and vehicle groups. Moreover, differences in cell morphology were also observed.

MDM2 protein = MDM2 protein (Homo sapiens, UniProt Q00987); conditions: MDM2 protein versus natural p53 peptide; cited from earlier work
MDM2 protein, sequence (Q00987 whole entry, species assumed): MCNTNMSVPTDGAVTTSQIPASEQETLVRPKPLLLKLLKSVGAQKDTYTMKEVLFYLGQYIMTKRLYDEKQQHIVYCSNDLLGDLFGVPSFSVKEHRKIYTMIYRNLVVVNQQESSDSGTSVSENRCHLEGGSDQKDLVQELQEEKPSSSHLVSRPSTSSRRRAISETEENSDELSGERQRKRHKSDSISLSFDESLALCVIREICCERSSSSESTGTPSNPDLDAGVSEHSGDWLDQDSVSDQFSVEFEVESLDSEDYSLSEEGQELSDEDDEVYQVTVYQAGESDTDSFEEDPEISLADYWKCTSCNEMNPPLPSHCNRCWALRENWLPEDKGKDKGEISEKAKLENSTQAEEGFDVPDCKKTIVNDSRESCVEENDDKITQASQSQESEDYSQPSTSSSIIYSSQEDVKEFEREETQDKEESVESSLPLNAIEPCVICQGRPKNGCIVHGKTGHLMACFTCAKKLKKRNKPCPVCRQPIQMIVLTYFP

Molecule	IC50 (MDA-MB231 cell lines)	cell viability compared to vehicle and untreated groups ([1]; 100 μM, 12 h, 24 h, 48 h and 72 h, ANOVA, p<0.001)	cytotoxicity at 100 µM ([1]; end of the first day)	cytotoxicity at 100 µM ([1]; end of the third day)	morphology of apoptotic cells, onset (HCT-116 cells; 100 μM concentration)	apoptotic activity, onset (HCT-116 cells; HCT-116, microscopy)	proliferation and cell structures under microscope (HCT-116 cells; HCT-116, observed for three days, versus vehicle and untreated)	binding affinity relative to natural p53 peptide (MDM2 protein)
Cc1cc(=O)c(C(=O)NCCc2c[nH]c3ccccc23)nn1-c1cccc(C(F)(F)F)c1 [compound of formula I]	24 µM	statistically significant difference	40%	60%	cells having the morphology of apoptotic cells were observed starting from the 3rd hour	clear apoptotic activity from the twelfth hour	reduced proliferation and showed apoptotic cell structures	
MI-319								500 fold
